Experimental data as given in patent publication US11578084B2, “Condensed ring compounds having dopamine D3 receptor antagonistic effect” (Shionogi & Co., Ltd., priority 2018, dated 2023).
Read-outs that look alike come from different tables or passages of the source.

Tests used:
[1] = molecular target: human recombinant dopamine D3 receptor (Homo sapiens (Human), UniProt P35462); assay: Test of binding inhibition for dopamine D3 receptor ([3H]-Methylspiperone SPA); conditions: Jump-In HEK cell membranes, 2 nM [3H]-Methylspiperone, 120 min at 25° C.; read-out: hD3_Ki
Protocol: (§1) (Experimental Conditions)
Cell membranes: Jump-In HEK cell membranes expressing human recombinant dopamine D3 receptor (4 μg/well)
(§2) Non-specific ligand: (final concentration) 10 μM Butaclamol [(+)-Butaclamol Hydrochloride, D033, Sigma]
(§3) SPA beads solution: SPA beads [WGA PVT SPA Scintillation Beads, RPNQ0001 (500 mg), RPNQ0060 (2 g), PerkinElmer] (0.2 mg/well)
(§4) Incubation time and temperature: 120 min at 25° C.
(§5) Butaclamol or the compounds of the present invention were weighed and DMSO was added to make a 10 mM solution. This solution was diluted to each concentration.
[^3H]-Methylspiperone was weighed and the buffer solution was added to make a 6 nM solution.
(§6) SPA beads were weighed and stirred in water to make a 50 mg/mL solution. Using this solution, a mixture with the cell membranes was prepared.
(§7) Jump-In HEK Cell membranes (final reaction amount: 4 μg protein/well), the SPA beads solution (final reaction amount: 0.2 mg/well) and the buffer solution were mixed and the mixed solution was left still for 1 hour or more at 4° C. Then, 50 μL of the mixture was added to each well of the plate. In addition, 25 μL of 6 nM [^3H]-Methylspiperone (final concentration: 2 nM) was added to each well. […] Non-specific binding was calculated based on the radioactivity of [^3H]-Methylspiperone in the presence of 10 μM non-labeled Butaclamol. The total binding was calculated using the radioactivity of [H]-Methylspiperone in the absence of the compounds of the present invention (vehicle). The Ki values were calculated from dose-response curves.
(§8) Binding activities of the compounds of the present invention were calculated from the following Binding Inhibition Rate (%): Inhibition Rate (%)=[1−(c−a)/(b−a)]×100 • a: Average cpm of non-specific binding • b: Average cpm of total binding • c: Cpm in the presence of each test compound

[2] = molecular target: human recombinant dopamine D2 receptor (Homo sapiens (Human), UniProt P14416); assay: Test of binding inhibition for dopamine D2 receptor ([3H]-Methylspiperone SPA); conditions: Jump-In HEK cell membranes, read-out: hD2_Ki
Protocol: as §1
Cell membranes: Jump-In HEK cell membranes expressing human recombinant dopamine D2 receptor (2 μg/well)
as §2, §3, §4, §5, §6
as §7, with “amount: 2” for “amount: 4”, “were mixed,” for “were mixed”, “plate.” for “plate. In addition, 25 μL of 6 nM [^3H]-Methylspiperone (final concentration: 2 nM) was added to each well.”, “of [^3H]-Methylspiperone” for “of [H]-Methylspiperone”, “invention (Vehicle).” for “invention (vehicle).”
as §8

[3] = 1.2 nM [3H]-Methylspiperone, 120 min at 25° C.

Sequence of human recombinant dopamine D3 receptor (P35462 whole entry): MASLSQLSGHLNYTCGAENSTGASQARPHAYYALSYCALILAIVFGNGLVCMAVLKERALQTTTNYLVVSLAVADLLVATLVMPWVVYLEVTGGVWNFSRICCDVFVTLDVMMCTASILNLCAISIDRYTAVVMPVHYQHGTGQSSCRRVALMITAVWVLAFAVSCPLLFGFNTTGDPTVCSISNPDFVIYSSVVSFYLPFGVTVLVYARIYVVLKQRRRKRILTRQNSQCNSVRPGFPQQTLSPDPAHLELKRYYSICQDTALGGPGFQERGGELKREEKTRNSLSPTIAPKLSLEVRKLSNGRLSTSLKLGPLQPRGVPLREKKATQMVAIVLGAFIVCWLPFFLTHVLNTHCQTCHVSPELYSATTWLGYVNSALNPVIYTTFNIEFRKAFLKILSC
Sequence of human recombinant dopamine D2 receptor (P14416 whole entry): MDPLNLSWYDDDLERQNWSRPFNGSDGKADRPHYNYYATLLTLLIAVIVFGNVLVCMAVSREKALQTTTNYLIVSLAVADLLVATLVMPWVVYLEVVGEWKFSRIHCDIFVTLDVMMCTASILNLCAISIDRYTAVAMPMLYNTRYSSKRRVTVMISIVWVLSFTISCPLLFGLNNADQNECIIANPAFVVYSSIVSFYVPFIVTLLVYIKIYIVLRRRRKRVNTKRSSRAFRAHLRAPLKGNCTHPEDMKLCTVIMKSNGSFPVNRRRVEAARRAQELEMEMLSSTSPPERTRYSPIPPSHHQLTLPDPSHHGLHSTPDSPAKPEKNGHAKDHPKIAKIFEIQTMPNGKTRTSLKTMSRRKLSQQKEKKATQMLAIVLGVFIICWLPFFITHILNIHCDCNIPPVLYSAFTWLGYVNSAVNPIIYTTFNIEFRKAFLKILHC

C[C@@H](Oc1ccc2c(n1)CCN(CC[C@H]1CC[C@H](NC(=O)Cc3cnn(C)n3)CC1)CC2)C(F)(F)F [Example I-128]
Ki [1]: 0.073 nM
Ki [2, 3]: 510 nM

Cc1nnc(CC(=O)N[C@H]2CC[C@H](CCN3CCc4ccc(O[C@H](C)C(F)(F)F)nc4CC3)CC2)s1 [Example I-129]
Ki [1]: 0.085 nM
Ki [2, 3]: 290 nM

Cc1nc(CC(=O)N[C@H]2CC[C@H](CCN3CCc4ccc(O[C@H](C)C(F)(F)F)nc4CC3)CC2)nn1C [Example I-130]
Ki [1]: 0.49 nM
Ki [2, 3]: 1200 nM

Cc1ncc(CC(=O)N[C@H]2CC[C@H](CCN3CCc4ccc(O[C@H](C)C(F)(F)F)nc4CC3)CC2)cn1 [Example I-131]
Ki [1]: 0.35 nM
Ki [2, 3]: 410 nM

C[C@@H](Oc1ccc2c(n1)CCN(CC[C@H]1CC[C@H](NC(=O)c3cccc(=O)n3C)CC1)CC2)C(F)(F)F [Example I-132]
Ki [1]: 0.12 nM
Ki [2, 3]: 300 nM

C[C@@H](Oc1ccc2c(n1)CCN(CC[C@H]1CC[C@H](NC(=O)COc3cnn(C)c3)CC1)CC2)C(F)(F)F [Example I-133]
Ki [1]: 0.15 nM
Ki [2, 3]: 190 nM

Cc1cnc(CC(=O)N[C@H]2CC[C@](F)(CCN3CCc4ccc(CCC(F)(F)F)nc4CC3)CC2)o1 [Example I-141]
Ki [1]: 0.41 nM
Ki [2, 3]: > 2300 nM

Cn1ncc(CC(=O)N[C@H]2CC[C@](F)(CCN3CCc4ccc(CCC(F)(F)F)nc4CC3)CC2)n1 [Example I-144]
Ki [1]: 0.32 nM
Ki [2, 3]: 1500 nM

O=C(N[C@H]1CC[C@](F)(CCN2CCc3nc(OCC(F)(F)F)sc3CC2)CC1)c1cccnc1C(F)F [Example I-159]
Ki [1]: 0.36 nM
Ki [2, 3]: 580 nM

O=C(N[C@H]1CC[C@](F)(CCN2CCc3nc(OCC(F)F)sc3CC2)CC1)c1cccnc1C(F)F [Example I-160]
Ki [1]: 0.83 nM
Ki [2, 3]: 1100 nM

O=C(N[C@H]1CC[C@H](CCN2CCc3nc(OCC(F)F)sc3CC2)CC1)c1cccnc1C(F)F [Example I-161]
Ki [1]: 0.32 nM
Ki [2, 3]: 940 nM

CC(F)(F)COc1nc2c(s1)CCN(CC[C@]1(F)CC[C@@H](NC(=O)c3cccnc3C(F)F)CC1)CC2 [Example I-162]
Ki [1]: 0.56 nM
Ki [2, 3]: 740 nM

CC(F)(F)COc1nc2c(s1)CCN(CC[C@H]1CC[C@H](NC(=O)c3cccnc3C(F)F)CC1)CC2 [Example I-163]
Ki [1]: 0.31 nM
Ki [2, 3]: 430 nM

O=C(N[C@H]1CC[C@H](CCN2CCc3nc(OC4CC(F)(F)C4)sc3CC2)CC1)c1cccnc1C(F)F [Example I-168]
Ki [1]: 0.31 nM
Ki [2, 3]: 1000 nM

C[C@@H](Oc1ccc2c(n1)CCN(CC[C@]1(F)CC[C@@H](NC(=O)Cc3cnn(C)n3)CC1)CC2)C(F)(F)F [Example I-174]
Ki [1]: 0.33 nM
Ki [2, 3]: 370 nM

Cc1nc(CC(=O)N[C@H]2CC[C@](F)(CCN3CCc4ccc(O[C@H](C)C(F)(F)F)nc4CC3)CC2)nn1C [Example I-180]
Ki [1]: 0.85 nM
Ki [2, 3]: 850 nM

Cn1c(C(=O)NC23CCC(CCN4CCc5nc(OCC(F)(F)F)sc5CC4)(CC2)CC3)cccc1=O [II-1]
Ki [1]: 0.17 nM
Ki ([2]; [3H]-Methylspiperone 1.2 nM): 830 nM

CN1Cc2c(C(=O)NC34CCC(CCN5CCc6nc(OCC(F)(F)F)sc6CC5)(CC3)CC4)cccc2C1=O [II-2]
Ki [1]: 0.079 nM
Ki ([2]; [3H]-Methylspiperone 1.2 nM): > 2200 nM

O=C(NC12CCC(CCN3CCc4nc(OCC(F)(F)F)sc4CC3)(CC1)CC2)c1cccnc1C(F)F [II-3]
Ki [1]: 0.29 nM
Ki ([2]; [3H]-Methylspiperone 1.2 nM): 1400 nM

Cn1ncc(CC(=O)NC23CCC(CCN4CCc5nc(OCC(F)(F)F)sc5CC4)(CC2)CC3)n1 [II-4]
Ki [1]: 0.16 nM
Ki ([2]; [3H]-Methylspiperone 1.2 nM): 1400 nM

Cc1nnc(CC(=O)NC23CCC(CCN4CCc5nc(OCC(F)(F)F)sc5CC4)(CC2)CC3)o1 [II-5]
Ki [1]: 0.2 nM
Ki ([2]; [3H]-Methylspiperone 1.2 nM): 1300 nM

Cc1ncc(CC(=O)NC23CCC(CCN4CCc5nc(OCC(F)(F)F)sc5CC4)(CC2)CC3)cn1 [II-6]
Ki [1]: 0.35 nM
Ki ([2]; [3H]-Methylspiperone 1.2 nM): 1200 nM

Cc1ncccc1C(=O)NC12CCC(CCN3CCc4nc(OCC(F)(F)F)sc4CC3)(CC1)CC2 [II-7]
Ki [1]: 0.39 nM
Ki ([2]; [3H]-Methylspiperone 1.2 nM): 1700 nM

CN1Cc2c(C(=O)NC34CCC(CCN5CCc6nc(OCC(F)F)sc6CC5)(CC3)CC4)cccc2C1=O [II-10]
Ki [1]: 0.5 nM
Ki ([2]; [3H]-Methylspiperone 1.2 nM): > 2300 nM

Cc1ncccc1C(=O)NC12CCC(CCN3CCc4ccc(OCC(F)F)nc4CC3)(CC1)CC2 [II-13]
Ki [1]: 0.56 nM
Ki ([2]; [3H]-Methylspiperone 1.2 nM): 2100 nM

Cc1cnc(CC(=O)NC23CCC(CCN4CCc5ccc(OCC(C)(F)F)nc5CC4)(CC2)CC3)o1 [II-14]
Ki [1]: 0.23 nM
Ki ([2]; [3H]-Methylspiperone 1.2 nM): 760 nM

Cc1ncc(/C=C/C(=O)NC23CCC(CCN4CCc5nc(OCC(F)(F)F)sc5CC4)(CC2)CC3)cn1 [II-15]
Ki [1]: 0.16 nM
Ki ([2]; [3H]-Methylspiperone 1.2 nM): 240 nM

Cc1nnc(CC(=O)N[C@H]2CC[C@](F)(CCN3CCc4ccc(CCC(F)(F)F)nc4CC3)CC2)s1 [III-1]
Ki [1]: 0.14 nM
Ki [2, 3]: > 2300 nM

Cc1nc(CC(=O)N[C@H]2CC[C@](F)(CCN3CCc4ccc(CCC(F)(F)F)nc4CC3)CC2)nn1C [III-2]
Ki [1]: 0.16 nM
Ki [2, 3]: 1200 nM

Cc1cc(CC(=O)N[C@H]2CC[C@](F)(CCN3CCc4ccc(CCC(F)(F)F)nc4CC3)CC2)on1 [III-3]
Ki [1]: 0.029 nM
Ki [2, 3]: > 2300 nM

Cc1nnc(CC(=O)N[C@H]2CC[C@H](CCN3CCc4nc(O[C@@H](C)C(F)(F)F)sc4CC3)CC2)o1 [III-4]
Ki [1]: 0.16 nM
Ki [2, 3]: 780 nM

C[C@H](Oc1nc2c(s1)CCN(CC[C@H]1CC[C@H](NC(=O)c3cccc(=O)n3C)CC1)CC2)C(F)(F)F [III-5]
Ki [1]: 0.23 nM
Ki [2, 3]: 1000 nM

C[C@H](Oc1nc2c(s1)CCN(CC[C@H]1CC[C@H](NC(=O)Cc3cnn(C)n3)CC1)CC2)C(F)(F)F [III-6]
Ki [1]: 0.15 nM
Ki [2, 3]: 1600 nM

Cc1nnc(CC(=O)N[C@H]2CC[C@H](CCN3CCc4ccc(O[C@@H](C)C(F)(F)F)nc4CC3)CC2)o1 [III-7]
Ki [1]: 0.09 nM
Ki [2, 3]: 290 nM

Cc1nnc(CC(=O)N[C@H]2CC[C@](F)(CCN3CCc4nc(OCC(F)(F)C(F)F)sc4CC3)CC2)o1 [III-8]
Ki [1]: 0.16 nM
Ki [2, 3]: 480 nM

Cn1ncc(CC(=O)N[C@H]2CC[C@](F)(CCN3CCc4nc(OCC(F)(F)C(F)F)sc4CC3)CC2)n1 [III-9]
Ki [1]: 0.081 nM
Ki [2, 3]: 770 nM

Cc1ncccc1C(=O)N[C@H]1CC[C@H](CCN2CCc3ccc(CCC(F)(F)F)nc3CC2)CC1 [I′-1]
Ki [1]: 0.43 nM
Ki ([2]; [3H]-Methylspiperone 1.2 nM): 920 nM

COc1cc(CC(=O)N[C@H]2CC[C@H](CCN3CCc4ccc(CCC(F)(F)F)nc4CC3)CC2)on1 [I′-2]
Ki [1]: 0.21 nM
Ki ([2]; [3H]-Methylspiperone 1.2 nM): > 2300 nM

Cc1nnc(CC(=O)N[C@H]2CC[C@H](CCN3CCc4ccc(CCC(F)(F)F)nc4CC3)CC2)o1 [I′-3]
Ki [1]: 0.18 nM
Ki ([2]; [3H]-Methylspiperone 1.2 nM): 1100 nM

Cn1cc(CC(=O)N[C@H]2CC[C@H](CCN3CCc4ccc(CCC(F)(F)F)nc4CC3)CC2)cn1 [I′-4]
Ki [1]: 0.22 nM
Ki ([2]; [3H]-Methylspiperone 1.2 nM): 1200 nM

Cn1c(C(=O)N[C@H]2CC[C@H](CCN3CCc4ccc(CCC(F)(F)F)nc4CC3)CC2)cccc1=O [I′-5]
Ki [1]: 0.22 nM
Ki ([2]; [3H]-Methylspiperone 1.2 nM): 610 nM

Cc1ncc(OCC(=O)N[C@H]2CC[C@H](CCN3CCc4ccc(CCC(F)(F)F)nc4CC3)CC2)cn1 [I′-7]
Ki [1]: 0.12 nM
Ki ([2]; [3H]-Methylspiperone 1.2 nM): 1100 nM

Cc1cc(OCC(=O)N[C@H]2CC[C@H](CCN3CCc4ccc(CCC(F)(F)F)nc4CC3)CC2)no1 [I′-8]
Ki [1]: 0.071 nM
Ki ([2]; [3H]-Methylspiperone 1.2 nM): > 2300 nM

Cn1cc2c(C(=O)N[C@H]3CC[C@H](CCN4CCc5ccc(CCC(F)(F)F)nc5CC4)CC3)ccc(F)c2n1 [I′-9]
Ki [1]: 0.11 nM
Ki ([2]; [3H]-Methylspiperone 1.2 nM): 530 nM

Cc1ncc(CC(=O)N[C@H]2CC[C@H](CCN3CCc4ccc(CCC(F)(F)F)nc4CC3)CC2)o1 [I′-10]
Ki [1]: 0.23 nM
Ki ([2]; [3H]-Methylspiperone 1.2 nM): 1100 nM

Cc1nc(CC(=O)N[C@H]2CC[C@H](CCN3CCc4ccc(CCC(F)(F)F)nc4CC3)CC2)no1 [I′-11]
Ki [1]: 0.18 nM
Ki ([2]; [3H]-Methylspiperone 1.2 nM): 1200 nM

Cc1nnc(CC(=O)N[C@H]2CC[C@H](CCN3CCc4ccc(CCC(F)(F)F)nc4CC3)CC2)s1 [I′-12]
Ki [1]: 0.29 nM
Ki ([2]; [3H]-Methylspiperone 1.2 nM): 820 nM

Cc1cnc(OCC(=O)N[C@H]2CC[C@H](CCN3CCc4ccc(CCC(F)(F)F)nc4CC3)CC2)cn1 [I′-13]
Ki [1]: 0.43 nM
Ki ([2]; [3H]-Methylspiperone 1.2 nM): 910 nM

Cc1nc(CC(=O)N[C@H]2CC[C@H](CCN3CCc4ccc(CCC(F)(F)F)nc4CC3)CC2)nn1C [I′-14]
Ki [1]: 0.21 nM
Ki ([2]; [3H]-Methylspiperone 1.2 nM): > 2300 nM

Cc1nc(CC(=O)N[C@H]2CC[C@H](CCN3CCc4ccc(CCC(F)(F)F)nc4CC3)CC2)n(C)n1 [I′-15]
Ki [1]: 1.4 nM
Ki ([2]; [3H]-Methylspiperone 1.2 nM): 1700 nM
